Laboratory results reported in PubChem BioAssay (NCI).
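The concentration for 50% growth inhibition is given as GI50. TGI is the concentration that stops growth completely.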

Experiments:
Assay in all cases: DTP human tumour cell line panel, 384-well format
786-0 renal = tested on: 786-0 renal
A498 renal = tested on: A498 renal
A549 NSCLC = tested on: A549 NSCLC
ACHN renal = tested on: ACHN renal
BT-549 breast = tested on: BT-549 breast
CAKI-1 renal = tested on: CAKI-1 renal
CCRF-CEM leukemia = tested on: CCRF-CEM leukemia
COLO 205 colon = tested on: COLO 205 colon
DU-145 prostate = tested on: DU-145 prostate
EKVX NSCLC = tested on: EKVX NSCLC
HCC-2998 colon = tested on: HCC-2998 colon
HCT-116 colon = tested on: HCT-116 colon
HCT-15 colon = tested on: HCT-15 colon
HL-60(TB) leukemia = tested on: HL-60(TB) leukemia
HOP-62 NSCLC = tested on: HOP-62 NSCLC
HOP-92 NSCLC = tested on: HOP-92 NSCLC
HS 578T breast = tested on: HS 578T breast
HT29 colon = tested on: HT29 colon
IGROV1 ovarian = tested on: IGROV1 ovarian
K-562 leukemia = tested on: K-562 leukemia
KM12 colon = tested on: KM12 colon
LOX IMVI melanoma = tested on: LOX IMVI melanoma
M14 melanoma = tested on: M14 melanoma
MALME-3M melanoma = tested on: MALME-3M melanoma
MCF7 breast = tested on: MCF7 breast
MDA-MB-231 breast = tested on: MDA-MB-231 breast
MDA-MB-435 melanoma = tested on: MDA-MB-435 melanoma
MDA-MB-468 breast = tested on: MDA-MB-468 breast
MOLT-4 leukemia = tested on: MOLT-4 leukemia
NCI-H226 lung = tested on: NCI-H226 lung
NCI-H23 lung = tested on: NCI-H23 lung
NCI-H322M lung = tested on: NCI-H322M lung
NCI-H460 NSCLC = tested on: NCI-H460 NSCLC
NCI-H522 lung = tested on: NCI-H522 lung
NCI/ADR-RES ovarian = tested on: NCI/ADR-RES ovarian
OVCAR-3 ovarian = tested on: OVCAR-3 ovarian
OVCAR-4 ovarian = tested on: OVCAR-4 ovarian
OVCAR-5 ovarian = tested on: OVCAR-5 ovarian
OVCAR-8 ovarian = tested on: OVCAR-8 ovarian
PC-3 prostate = tested on: PC-3 prostate
RPMI-8226 leukemia = tested on: RPMI-8226 leukemia
RXF 393 renal = tested on: RXF 393 renal
SF-268 CNS = tested on: SF-268 CNS
SF-295 CNS = tested on: SF-295 CNS
SF-539 CNS = tested on: SF-539 CNS
SK-MEL-2 melanoma = tested on: SK-MEL-2 melanoma
SK-MEL-28 melanoma = tested on: SK-MEL-28 melanoma
SK-MEL-5 melanoma = tested on: SK-MEL-5 melanoma
SK-OV-3 ovarian = tested on: SK-OV-3 ovarian
SN12C renal = tested on: SN12C renal
SNB-19 CNS = tested on: SNB-19 CNS
SNB-75 CNS = tested on: SNB-75 CNS
SR leukemia = tested on: SR leukemia
SW-620 colon = tested on: SW-620 colon
T-47D breast = tested on: T-47D breast
TK-10 renal = tested on: TK-10 renal
U251 glioblastoma = tested on: U251 glioblastoma
UACC-257 melanoma = tested on: UACC-257 melanoma
UACC-62 melanoma = tested on: UACC-62 melanoma
UO-31 renal = tested on: UO-31 renal

For Cc1cc2cc(Oc3ccnc(Nc4cccc(CS(=O)(=O)NCCN(C)C)c4)n3)ccc2[nH]1, the GI50 ([…]-0 renal) was 3.36 µM, the TGI (786-0 renal) was 11.9 µM and the GI50 (A498 renal) was 3.08 µM. The TGI (A498 renal) was 11.1 µM, the GI50 (A549 NSCLC) was 7.13 µM and the TGI (A549 NSCLC) was 19.4 µM. The GI50 (ACHN renal) was 6.45 µM, the TGI (ACHN renal) was 19 µM and the GI50 (BT-549 breast) was 2.19 µM. The TGI (BT-549 breast) was 7.26 µM, the GI50 (CAKI-1 renal) was 3.61 µM and the TGI (CAKI-1 renal) was 13.9 µM. It also gave a GI50 (CCRF-CEM leukemia) of 1.96 µM, a TGI (CCRF-CEM leukemia) of 3.65 µM and a GI50 (COLO 205 colon) of 4.4 µM. For the same compound, the TGI (COLO 205 colon) was 10.2 µM, the GI50 (DU-145 prostate) was 8.4 µM and the TGI (DU-145 prostate) was 20.8 µM. The GI50 (EKVX NSCLC) was 5.04 µM, the TGI (EKVX NSCLC) was 16.7 µM and the GI50 (HCC-2998 colon) was 2.02 µM. The TGI (HCC-2998 colon) was 3.98 µM, the GI50 (HCT-116 colon) was 3.29 µM and the TGI (HCT-116 colon) was 11.8 µM. It also gave a GI50 (HCT-15 colon) of 5.47 µM, a TGI (HCT-15 colon) of 16.7 µM and a GI50 (HL-60(TB) leukemia) of 2.45 µM. The TGI (HL-60(TB) leukemia) was 5.63 µM, the GI50 (HOP-62 NSCLC) was 7.38 µM and the TGI (HOP-62 NSCLC) was 20.2 µM. The GI50 (HOP-92 NSCLC) was 2.51 µM, the TGI (HOP-92 NSCLC) was 7.51 µM and the GI50 (HS 578T breast) was 1.69 µM. It also gave a TGI (HS 578T breast) of 5.72 µM, a GI50 (HT29 colon) of 2.4 µM and a TGI (HT29 colon) of 6.03 µM. It also gave a GI50 (IGROV1 ovarian) of 3.05 µM, a TGI (IGROV1 ovarian) of 9.84 µM and a GI50 (K-562 leukemia) of 1.27 µM. The TGI (K-562 leukemia) was 2.59 µM, the GI50 (KM12 colon) was 0.736 µM and the TGI (KM12 colon) was 12.2 µM. For the same compound, the GI50 (LOX IMVI melanoma) was 1.93 µM, the TGI (LOX IMVI melanoma) was 4.2 µM and the GI50 (M14 melanoma) was 3.38 µM. The TGI (M14 melanoma) was 7.81 µM, the GI50 (MALME-3M melanoma) was 1.84 µM and the TGI (MALME-3M melanoma) was 3.34 µM. For the same compound, the GI50 (MCF7 breast) was 3.48 µM, the TGI (MCF7 breast) was 12.7 µM and the GI50 (MDA-MB-231 breast) was 6.73 µM. The TGI (MDA-MB-231 breast) was 19.1 µM, the GI50 (MDA-MB-435 melanoma) was 7.5 µM and the TGI (MDA-MB-435 melanoma) was 19.6 µM. It also gave a GI50 (MDA-MB-468 breast) of 3.19 µM, a TGI (MDA-MB-468 breast) of 7.85 µM and a GI50 (MOLT-4 leukemia) of 1.8 µM. For the same compound, the TGI (MOLT-4 leukemia) was 3.24 µM, the GI50 (NCI-H226 lung) was 1.95 µM and the TGI (NCI-H226 lung) was 12.5 µM. For the same compound, the GI50 (NCI-H23 lung) was 2.51 µM, the TGI (NCI-H23 lung) was 8.7 µM and the GI50 (NCI-H322M lung) was 10.7 µM. For the same compound, the TGI (NCI-H322M lung) was 23.2 µM, the GI50 (NCI-H460 NSCLC) was 2.62 µM and the TGI (NCI-H460 NSCLC) was 6.54 µM. For the same compound, the GI50 (NCI-H522 lung) was 2.47 µM, the TGI (NCI-H522 lung) was 7.78 µM and the GI50 (NCI/ADR-RES ovarian) was 15.3 µM. For the same compound, the TGI (NCI/ADR-RES ovarian) was 28.8 µM, the GI50 (OVCAR-3 ovarian) was 6.2 µM and the TGI (OVCAR-3 ovarian) was 18 µM. It also gave a GI50 (OVCAR-4 ovarian) of 12 µM, a TGI (OVCAR-4 ovarian) of 24.4 µM and a GI50 (OVCAR-5 ovarian) of 3.81 µM. The TGI (OVCAR-5 ovarian) was 13.1 µM, the GI50 (OVCAR-8 ovarian) was 9.99 µM and the TGI (OVCAR-8 ovarian) was 22.1 µM. For the same compound, the GI50 (PC-3 prostate) was 4.19 µM, the TGI (PC-3 prostate) was 14.9 µM and the GI50 (RPMI-8226 leukemia) was 3.29 µM. The TGI (RPMI-8226 leukemia) was 11.4 µM, the GI50 (RXF 393 renal) was 1.83 µM and the TGI (RXF 393 renal) was 4.32 µM. It also gave a GI50 (SF-268 CNS) of 3.93 µM, a TGI (SF-268 CNS) of 14.1 µM and a GI50 (SF-295 CNS) of 8.49 µM. The TGI (SF-295 CNS) was 21.1 µM, the GI50 (SF-539 CNS) was 2.04 µM and the TGI (SF-539 CNS) was 6.29 µM. The GI50 (SK-MEL-2 melanoma) was 2.64 µM, the TGI (SK-MEL-2 melanoma) was 6.28 µM and the GI50 (SK-MEL-28 melanoma) was 4.58 µM. For the same compound, the TGI (SK-MEL-28 melanoma) was 12.4 µM, the GI50 (SK-MEL-5 melanoma) was 1.74 µM and the TGI (SK-MEL-5 melanoma) was 3.16 µM. The GI50 (SK-OV-3 ovarian) was 8.13 µM, the TGI (SK-OV-3 ovarian) was 20.8 µM and the GI50 (SN12C renal) was 3.66 µM. It also gave a TGI (SN12C renal) of 13.2 µM, a GI50 (SNB-19 CNS) of 8.83 µM and a TGI (SNB-19 CNS) of 21.2 µM. It also gave a GI50 (SNB-75 CNS) of 1.55 µM, a TGI (SNB-75 CNS) of 3.81 µM and a GI50 (SR leukemia) of 1.38 µM. For the same compound, the TGI (SR leukemia) was 2.69 µM, the GI50 (SW-620 colon) was 11.1 µM and the TGI (SW-620 colon) was 23.3 µM. For the same compound, the GI50 (T-47D breast) was 7.08 µM, the TGI (T-47D breast) was 19.2 µM and the GI50 (TK-10 renal) was 8.76 µM. For the same compound, the TGI (TK-10 renal) was 21.2 µM, the GI50 (U251 glioblastoma) was 3.56 µM and the TGI (U251 glioblastoma) was 14.5 µM. The GI50 (UACC-257 melanoma) was 1.84 µM, the TGI (UACC-257 melanoma) was 3.26 µM and the GI50 (UACC-62 melanoma) was 2.78 µM. For the same compound, the TGI (UACC-62 melanoma) was 7.45 µM, the GI50 (UO-31 renal) was 10.6 µM and the TGI (UO-31 renal) was 22.5 µM.
